From patent US8835418B2, “Hexafluoroisopropyl carbamate derivatives, their preparation and their therapeutic application” (SANOFI, priority 2010, dated 2014) come the findings set out here.

Counter-ions that a name gives are not always drawn.

For series [1], the target named is T1, enzyme MGL (monoacyl glycerol lipase) (Mus musculus, UniProt O35678).
T1 construct: The source of enzyme MGL is a homogenate of mouse brain from which the cerebellum and the medulla oblongata have been removed; from tissue; host or cells: mouse brain homogenate (cerebellum and medulla oblongata removed)
T1 sequence (O35678 1-303): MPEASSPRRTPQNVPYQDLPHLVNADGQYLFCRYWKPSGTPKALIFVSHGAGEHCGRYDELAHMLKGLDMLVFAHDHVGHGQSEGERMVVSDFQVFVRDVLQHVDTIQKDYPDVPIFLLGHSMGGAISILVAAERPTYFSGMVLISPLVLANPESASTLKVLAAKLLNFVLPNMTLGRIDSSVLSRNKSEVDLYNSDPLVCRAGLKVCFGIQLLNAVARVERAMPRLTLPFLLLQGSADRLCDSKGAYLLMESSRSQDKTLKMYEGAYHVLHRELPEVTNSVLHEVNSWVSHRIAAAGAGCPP
The experiment in a line: radioenzymatic assay of MGL activity (hydrolysis of [3H]2-oleoylglycerol by mouse brain homogenate). It is filed as biochemical. Particulars: mouse brain homogenate (37.5 μg protein), 20 min preincubation, 50 μM 2-OG with [3H]2-OG, ambient temperature, read-out: IC50 (concentration which inhibits the control enzymatic activity of the MGL by 50%). The method, then:
The inhibitory activity with respect to MGL is given by the concentration which inhibits 50% of the activity of MGL.
The inhibitory activity was measured in a radioenzymatic assay based on measuring the product of hydrolysis of 2-oleoylglycerol ([^3H]2-OG) by the enzyme MGL. The products of hydrolysis of [^3H]2-OG, labelled on the glycerol, are oleic acid and [^3H]glycerol. The source of enzyme MGL is a homogenate of mouse brain from which the cerebellum and the medulla oblongata have been removed. The mouse brains are removed and stored at −80° C. until they are used or homogenized immediately for 2 times 5 seconds using a Precellys device (Bertin) at 5000 rpm in a 10 mM Tris-HCl pH 8, 150 mM NaCl, 1 mM EDTA buffer at 4° C.
The dilution series of the compounds is prepared from stock solutions at 20 mM in 100% DMSO. The first dilution of this series is prepared in 100% DMSO and then the second is prepared in the enzymatic reaction buffer (50 mM phosphate, 0.1% BSA), resulting in the preparation of a 10-times concentrated concentration range. The test compounds are preincubated at the chosen concentration for 20 minutes with the mouse brain homogenate preparation.
Assaying of the MGL activity is carried out at ambient temperature in a 96-well microplate in a final reaction volume of 50 μl. […] After 20 minutes of preincubation with the test compounds, the proteins are incubated for 20 minutes in the presence of 50 μM of 2-OG comprising an amount of [^3H]2-OG of 0.027 μCi per well (specific activity of 20 Ci/mmol). The reaction is stopped by the addition of 50 μl per well of a charcoal suspension (6% of Sigma activated charcoal, reference C4386, in suspension in a 0.5M HCl, 1.5M NaCl solution). After stirring for 10 minutes, the [^3H]glycerol, not retained by the charcoal, is collected by filtration in a microplate comprising 100 μl of scintillant (OptiPhase Supermix, Perkin-Elmer) per well.

The term melting point denotes the temperature, or range, at which the solid turns liquid. Turning to `O=C(OC(C(F)(F)F)C(F)(F)F)N1CCC(Nc2ccc(C(F)(F)F)cn2)CC1` (as salt: hydrochloride) [Compound 65, 2,2,2-Trifluoro-1-(trifluoromethyl)ethyl 4-(5-(trifluoromethyl)pyridin-2-ylamino)piperidine-1-carboxylate hydrochloride (1:1)], the melting point is 225 to 235 °C (dec.).

With `N#Cc1ccc(C2CCN(C(=O)OC(C(F)(F)F)C(F)(F)F)CC2)cc1` [Compound 5, 2,2,2-Trifluoro-1-(trifluoromethyl)ethyl 4-(4-cyanophenyl)piperidine-1-carboxylate], the melting point fell in the range of 54 to 56 °C.

Molecule `O=C(OC(C(F)(F)F)C(F)(F)F)N1CCC(c2noc3cc(F)ccc23)CC1` [Compound 10, 2,2,2-Trifluoro-1-(trifluoromethyl)ethyl 4-(6-fluorobenz[d]isoxazol-3-yl)piperidine-1-carboxylate] registered a melting point of 91 to 93 °C.

`O=C(OC(C(F)(F)F)C(F)(F)F)N1CCC(n2c(=O)[nH]c3cc(Cl)ccc32)CC1` [Compound 12, 2,2,2-Trifluoro-1-(trifluoromethyl)ethyl 4-(5-chloro-2-oxo-2,3-dihydrobenzimidazol-1-yl)piperidine-1-carboxylate] came in with a melting point of 231 to 233 °C.

On to `O=C(OC(C(F)(F)F)C(F)(F)F)N1CCC(n2nnc3cc(C(F)(F)F)ccc32)CC1` [Compound 13, 2,2,2-Trifluoro-1-(trifluoromethyl)ethyl 4-(5-(trifluoromethyl)benzotriazol-1-yl)piperidine-1-carboxylate], for which the IC50 in series [1] stood at 6 nM.

For the molecule `O=C(OC(C(F)(F)F)C(F)(F)F)N1CC[C@H](Oc2cccc(-c3ccc(F)cc3)c2)C1` [Compound 22, 2,2,2-Trifluoro-1-(trifluoromethyl)ethyl (S)-3-(4′-fluorobiphenyl-3-yloxy)pyrrolidine-1-carboxylate], the melting point was in the range of 72 to 73 °C.

In turn, `O=C(OC(C(F)(F)F)C(F)(F)F)N1CC[C@@H](Oc2cccc(-c3ccc(F)cc3)c2)C1` [Compound 23, 2,2,2-Trifluoro-1-(trifluoromethyl)ethyl (R)-3-(4′-fluorobiphenyl-3-yloxy)pyrrolidine-1-carboxylate] displayed a melting point of 72 to 73 °C.

Consider `N#Cc1cccc(-c2cccc(OC3CCN(C(=O)OC(C(F)(F)F)C(F)(F)F)CC3)c2)c1` [Compound 33, 2,2,2-Trifluoro-1-(trifluoromethyl)ethyl 4-(3′-cyanobiphenyl-3-yloxy)piperidine-1-carboxylate], for which the melting point was in the range of 80 to 82 °C. In series [1], the IC50 was found to be 0.6 nM.

Turning to `N#Cc1cccc(-c2nccc(NC3CCN(C(=O)OC(C(F)(F)F)C(F)(F)F)CC3)n2)c1` [Compound 70, 2,2,2-Trifluoro-1-(trifluoromethyl)ethyl 4-[2-(3-cyanophenyl)pyrimidin-4-ylamino]pipendine-1-carboxylate], the melting point was 151 to 153 °C. The IC50 in series [1] was found to be 5 nM.

Turning to `CC(C)(Oc1ccc(Cl)cc1)C(=O)NCC1CCN(C(=O)OC(C(F)(F)F)C(F)(F)F)CC1` [Compound 87, 2,2,2-Trifluoro-1-(trifluoromethyl)ethyl 4-{[2-(4-chlorophenoxy)-2-methylpropionylamino]-methyl}piperidine-1-carboxylate], the melting point fell in the range of 77 to 78 °C.

`O=C(OC(C(F)(F)F)C(F)(F)F)N1CCC(CNS(=O)(=O)c2cccc3ccccc23)C1` (stereo not drawn) [Compound 113, 2,2,2-Trifluoro-1-(trifluoromethyl)ethyl 3-[(naphthalene-1-sulphonylamino)methyl]-pyrrolidine-1-carboxylate] had a melting point of 135 to 136 °C.

For the molecule `O=C(Nc1cccc(Cl)c1)NC1CCN(C(=O)OC(C(F)(F)F)C(F)(F)F)CC1` [Compound 166, 2,2,2-Trifluoro-1-(trifluoromethyl)ethyl 4-[3-(3-chlorophenyl)ureido]piperidine-1-carboxylate], the melting point was in the range of 204 to 206 °C.

`O=C(NCCC1CN(C(=O)OC(C(F)(F)F)C(F)(F)F)C1)Nc1cccc(Cl)c1` [Compound 188, 2,2,2-Trifluoro-1-(trifluoromethyl)ethyl 3-{2-[3-(3-chlorophenyl)ureido]ethyl}azetidine-1-carboxylate] came in with a melting point of 116 to 117 °C. The IC50 in series [1] stood at 1.1 nM.

In turn, `CN(C(=O)NCCC1CN(C(=O)OC(C(F)(F)F)C(F)(F)F)C1)c1ccccc1` [Compound 191, 2,2,2-Trifluoro-1-(trifluoromethyl)ethyl 3-[2-(3-methyl-3-phenylureido)ethyl]azetidine-1-carboxylate] showed a melting point of 101 to 102 °C.

Consider `O=C(OC(C(F)(F)F)C(F)(F)F)N1CCC(CNS(=O)(=O)c2cccc3nsnc23)CC1` [Compound 211, 2,2,2-Trifluoro-1-(trifluoromethyl)ethyl 4-[(benzo[1,2,5]thiadiazole-4-sulphonylamino)methyl]piperidine-1-carboxylate], for which the melting point lay within 146 to 148 °C. Moreover, the IC50 in series [1] worked out at 7 nM.

The molecule `O=C(OC(C(F)(F)F)C(F)(F)F)N1CC(C2(NS(=O)(=O)c3ccc(Cl)cc3)CC2)C1` [Compound 220, 2,2,2-Trifluoro-1-(trifluoromethyl)ethyl 3-[1-(4-chlorobenzenesulphonylamino)cyclopropyl]-azetidine-1-carboxylate] displayed a melting point of 108 to 109 °C.

With `NC(=O)c1cnn(CC2CCN(C(=O)OC(C(F)(F)F)C(F)(F)F)CC2)c1` [Compound 231, 2,2,2-Trifluoro-1-(trifluoromethyl)ethyl 4-(4-carbamoylpyrazol-1-ylmethyl)piperidine-1-carboxylate], the melting point was 98 to 118 °C.
